Test results: the supplement of paper PMC10307832

What was measured:
Experiment in all cases: relative viability (nuclei count vs DMSO), 5 days (fraction); higher = more cells survive
[1] = tested on: LCLC-97TM1
Method in brief: (§1)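 Lung cancer cell lines, seeded in 1536-well plates, were treated the following day by pin tool with a single drug or with five library-drug doses (not always all listed) in √10 steps on top of a fixed anchor-drug dose. Cells were fixed and nuclei stained in one step after 5 days, and nuclei were counted. Relative viability is the nuclei count for treated wells divided by that for vehicle wells, reported as medians of duplicate plates.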

[2] = tested on: NCI-H1944
Method in brief: as §1

[3] = tested on: HCC-78
Method in brief: as §1

[4] = tested on: EPLC-272H
Method in brief: as §1

[5] = tested on: NCI-H1915
Method in brief: as §1

[6] = tested on: UMC-11
Method in brief: as §1

[7] = tested on: LC-2-ad
Method in brief: as §1

[8] = tested on: NCI-H2085
Method in brief: as §1

[9] = tested on: NCI-H1792
Method in brief: as §1

[10] = tested on: NCI-H1755
Method in brief: as §1

[11] = tested on: COR-L 105
Method in brief: as §1

[12] = tested on: SW 900
Method in brief: as §1

[13] = tested on: NCI-H1793
Method in brief: as §1

[14] = tested on: SK-LU-1
Method in brief: as §1

[15] = tested on: NCI-H460
Method in brief: as §1

[16] = tested on: HCC-366
Method in brief: as §1

[17] = tested on: LU99A
Method in brief: as §1

[18] = tested on: NCI-H358
Method in brief: as §1

[19] = tested on: NCI-H2170
Method in brief: as §1

[20] = tested on: A-427
Method in brief: as §1

[21] = tested on: LXF-289
Method in brief: as §1

[22] = tested on: NCI-H1975
Method in brief: as §1

[23] = tested on: HOP-62
Method in brief: as §1

## CC1(C)CCC(c2ccc(Cl)cc2)=C(CN2CCN(c3ccc(C(=O)NS(=O)(=O)c4ccc(N[C@H](CCN5CCOCC5)CSc5ccccc5)c(S(=O)(=O)C(F)(F)F)c4)cc3)CC2)C1 [Navitoclax] + O=C(c1cc(Cc2n[nH]c(=O)c3ccccc23)ccc1F)N1CCN(C(=O)C2CC2)CC1 [Olaparib] (partner 8 µM)
[1]; first compound 0.005 µM
  relative viability: 0.34
[1]; first compound 0.01581 µM
  relative viability: 0.599
[1]; first compound 0.05 µM
  relative viability: 0.243
[1]; first compound 0.1581 µM
  relative viability: 0.409
[1]; first compound 0.5 µM
  relative viability: 0.445
[2]; first compound 0.005 µM
  relative viability: 0.383
[2]; first compound 0.01581 µM
  relative viability: 0.403
[2]; first compound 0.1581 µM
  relative viability: 0.412
[2]; first compound 0.5 µM
  relative viability: 0.401
[3]; first compound 0.005 µM
  relative viability: 0.844
[3]; first compound 0.01581 µM
  relative viability: 0.776
[3]; first compound 0.05 µM
  relative viability: 0.696
[3]; first compound 0.1581 µM
  relative viability: 0.925
[3]; first compound 0.5 µM
  relative viability: 0.863
[4]; first compound 0.005 µM
  relative viability: 0.877
[4]; first compound 0.01581 µM
  relative viability: 0.79
[4]; first compound 0.05 µM
  relative viability: 0.644
[4]; first compound 0.1581 µM
  relative viability: 0.714
[4]; first compound 0.5 µM
  relative viability: 1.18
[5]; first compound 0.005 µM
  relative viability: 0.253
[5]; first compound 0.01581 µM
  relative viability: 0.247
[5]; first compound 0.05 µM
  relative viability: 0.215
[5]; first compound 0.1581 µM
  relative viability: 0.261
[5]; first compound 0.5 µM
  relative viability: 0.254
[6]; first compound 0.005 µM
  relative viability: 0.89
[6]; first compound 0.01581 µM
  relative viability: 0.361
[6]; first compound 0.05 µM
  relative viability: 0.346
[6]; first compound 0.1581 µM
  relative viability: 0.317
[6]; first compound 0.5 µM
  relative viability: 0.266
[7]; first compound 0.005 µM
  relative viability: 0.729
[7]; first compound 0.01581 µM
  relative viability: 0.744
[7]; first compound 0.05 µM
  relative viability: 0.654
[7]; first compound 0.1581 µM
  relative viability: 0.698
[7]; first compound 0.5 µM
  relative viability: 0.701
[8]; first compound 0.005 µM
  relative viability: 0.74
[8]; first compound 0.01581 µM
  relative viability: 0.864
[8]; first compound 0.05 µM
  relative viability: 0.596
[8]; first compound 0.1581 µM
  relative viability: 0.746
[8]; first compound 0.5 µM
  relative viability: 0.815
[9]; first compound 0.005 µM
  relative viability: 0.408
[9]; first compound 0.01581 µM
  relative viability: 0.662
[9]; first compound 0.1581 µM
  relative viability: 0.386
[9]; first compound 0.5 µM
  relative viability: 0.326
[10]; first compound 0.005 µM
  relative viability: 0.831
[10]; first compound 0.01581 µM
  relative viability: 0.929
[10]; first compound 0.05 µM
  relative viability: 0.686
[10]; first compound 0.1581 µM
  relative viability: 0.818
[10]; first compound 0.5 µM
  relative viability: 0.897
[11]; first compound 0.005 µM
  relative viability: 0.707
[11]; first compound 0.01581 µM
  relative viability: 0.749
[11]; first compound 0.05 µM
  relative viability: 0.664
[11]; first compound 0.1581 µM
  relative viability: 0.614
[11]; first compound 0.5 µM
  relative viability: 0.666
[12]; first compound 0.005 µM
  relative viability: 0.936
[12]; first compound 0.01581 µM
  relative viability: 1.01
[12]; first compound 0.1581 µM
  relative viability: 0.947
[12]; first compound 0.5 µM
  relative viability: 0.841
[13]; first compound 0.005 µM
  relative viability: 0.903
[13]; first compound 0.01581 µM
  relative viability: 1.05
[13]; first compound 0.1581 µM
  relative viability: 0.885
[13]; first compound 0.5 µM
  relative viability: 0.684
[14]; first compound 0.005 µM
  relative viability: 0.613
[14]; first compound 0.01581 µM
  relative viability: 0.474
[14]; first compound 0.05 µM
  relative viability: 0.329
[14]; first compound 0.1581 µM
  relative viability: 0.424
[14]; first compound 0.5 µM
  relative viability: 0.338
[15]; first compound 0.005 µM
  relative viability: 0.424
[15]; first compound 0.01581 µM
  relative viability: 0.499
[15]; first compound 0.05 µM
  relative viability: 0.359
[15]; first compound 0.1581 µM
  relative viability: 0.388
[15]; first compound 0.5 µM
  relative viability: 0.402
[16]; first compound 0.005 µM
  relative viability: 0.362
[16]; first compound 0.01581 µM
  relative viability: 0.43
[16]; first compound 0.1581 µM
  relative viability: 0.404
[16]; first compound 0.5 µM
  relative viability: 0.399
[17]; first compound 0.005 µM
  relative viability: 0.257
[17]; first compound 0.01581 µM
  relative viability: 0.275
[17]; first compound 0.1581 µM
  relative viability: 0.269
[17]; first compound 0.5 µM
  relative viability: 0.276
[18]; first compound 0.005 µM
  relative viability: 0.566
[18]; first compound 0.01581 µM
  relative viability: 0.751
[18]; first compound 0.05 µM
  relative viability: 0.663
[18]; first compound 0.1581 µM
  relative viability: 0.536
[18]; first compound 0.5 µM
  relative viability: 0.585
[19]; first compound 0.005 µM
  relative viability: 0.574
[19]; first compound 0.01581 µM
  relative viability: 0.62
[19]; first compound 0.05 µM
  relative viability: 0.53
[19]; first compound 0.1581 µM
  relative viability: 0.58
[19]; first compound 0.5 µM
  relative viability: 0.56
[20]; first compound 0.005 µM
  relative viability: 0.71
[20]; first compound 0.01581 µM
  relative viability: 0.682
[20]; first compound 0.05 µM
  relative viability: 0.782
[20]; first compound 0.1581 µM
  relative viability: 0.808
[20]; first compound 0.5 µM
  relative viability: 0.737
[21]; first compound 0.005 µM
  relative viability: 1.01
[21]; first compound 0.01581 µM
  relative viability: 1.12
[21]; first compound 0.05 µM
  relative viability: 0.88
[21]; first compound 0.1581 µM
  relative viability: 0.888
[21]; first compound 0.5 µM
  relative viability: 1.08
[22]; first compound 0.005 µM
  relative viability: 0.77
[22]; first compound 0.01581 µM
  relative viability: 0.854
[22]; first compound 0.05 µM
  relative viability: 0.773
[22]; first compound 0.1581 µM
  relative viability: 0.813
[22]; first compound 0.5 µM
  relative viability: 0.755
[23]; first compound 0.005 µM
  relative viability: 0.211
[23]; first compound 0.01581 µM
  relative viability: 0.434
[23]; first compound 0.05 µM
  relative viability: 0.507
[23]; first compound 0.1581 µM
  relative viability: 0.473
[23]; first compound 0.5 µM
  relative viability: 0.432
